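Grown in 96-well plates, cells were treated for 48 hours with each compound at five concentrations. Insufficient inhibition: endpoint recorded as highest concentration tested. TGI: concentration producing complete growth inhibition.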
Columns and labels:
Assay in all cases: NCI-60 cell line screen, 48 h
HCT-15 colon = system: HCT-15 colon
ACHN renal = system: ACHN renal
SK-MEL-5 melanoma = system: SK-MEL-5 melanoma
TK-10 renal = system: TK-10 renal
HCT-116 colon = system: HCT-116 colon
UACC-62 melanoma = system: UACC-62 melanoma
PC-3 prostate = system: PC-3 prostate
DU-145 prostate = system: DU-145 prostate
SN12C renal = system: SN12C renal
SK-MEL-28 melanoma = system: SK-MEL-28 melanoma

Structure (SMILES)	TGI (HCT-15 colon)	TGI (ACHN renal)	TGI (SK-MEL-5 melanoma)	TGI (TK-10 renal)	TGI (HCT-116 colon)	TGI (UACC-62 melanoma)	TGI (PC-3 prostate)	TGI (DU-145 prostate)	TGI (SN12C renal)	TGI (SK-MEL-28 melanoma)
CCOC(=O)c1nc2ccc(C(F)(F)F)cc2nc1Nc1ccc(OC)c(OC)c1	> 100 µM	> 100 µM	> 100 µM	> 100 µM	> 100 µM	> 100 µM	> 100 µM	> 100 µM	> 100 µM	> 100 µM
C=C1C(=O)O[C@H]2[C@H]3O[C@@H](C[C@@H]12)[C@](C)(O)CCCC(C)=CCC[C@H]3C	84.9 µM	21.7 µM	31.1 µM	14.6 µM	31.1 µM	22.8 µM	25.7 µM	39.6 µM	71.4 µM	25.9 µM
Nc1nc(Cl)cc(NCC2(CO)CCC(OCc3ccccc3)C2)n1 (stereo not given)	> 100 µM	> 100 µM	18.8 µM	60.5 µM	> 100 µM	> 100 µM	33 µM	> 100 µM	93 µM	> 100 µM
CN(C)N1C(=O)CC2(CCN(CCCC(=O)c3ccc(F)cc3)CC2)C1=O	> 100 µM	> 100 µM	> 100 µM	> 100 µM	> 100 µM	> 100 µM	> 100 µM	> 100 µM	> 100 µM	> 100 µM
Cc1ccc(OCCn2cc(Nc3ccccc3)c(=O)[nH]c2=O)cc1	> 100 µM	> 100 µM	> 100 µM	> 100 µM	> 100 µM	> 100 µM	> 100 µM	> 100 µM	> 100 µM	> 100 µM
[O-][n+]1onc2c1-c1nonc1CC2	> 100 µM	88.2 µM	78.6 µM	56.4 µM	46.2 µM	> 100 µM	77.8 µM	> 100 µM	> 100 µM	> 100 µM
CO/N=C/c1c(-c2ccc(Cl)cc2)c(/C=N/OC)n2c1sc1ccccc12	> 100 µM	> 100 µM	> 100 µM	> 100 µM	> 100 µM	> 100 µM	> 100 µM	> 100 µM	> 100 µM	> 100 µM
CC1=C/C(=C(/c2ccc(O)c(C)c2)c2ccccc2C(=O)O)C=CC1=O	42.7 µM	32.2 µM	34.9 µM	31.1 µM	32.8 µM	30.9 µM	35.9 µM	35.6 µM	36.7 µM	40 µM
O=C(O)CCCC#CCCCC(=O)O	> 100 µM	> 100 µM	> 100 µM	> 100 µM	> 100 µM	> 100 µM	> 100 µM	> 100 µM	> 100 µM	> 100 µM
